Measurements reported in ChEMBL document CHEMBL1201862, “PubChem BioAssay data set” (2004).
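Step 1: Grow cells in 96-well plates. Step 2: Expose to compound for 48 hours at 5 concentrations. Step 3: Interpolate endpoints linearly; if unreached, use highest concentration. At the GI50, growth is halved.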 Active and inactive are the calls of the source. Rule as the data show it: active = GI50 up to about 1.1 µM and inactive = higher.

Tests used:
Assay in all cases: inhibition of tumour cell growth, NCI panel, 48 h
[1] = system: CCRF-CEM
[2] = system: PC-3
[3] = system: NCI-H522
[4] = system: SNB-75
[5] = system: A498
[6] = system: CAKI-1
[7] = system: UACC-62
[8] = system: U-251
[9] = system: MDA-MB-231
[10] = system: HCC 2998
[11] = system: SK-MEL-2
[12] = system: SK-MEL-28
[13] = system: UO-31
[14] = system: M14
[15] = system: SF-295
[16] = system: NCI-H23
[17] = system: HOP-92
[18] = system: DU-145
[19] = system: HCT-116
[20] = system: LOX IMVI
[21] = system: EKVX
[22] = system: HOP-62
[23] = system: IGROV-1
[24] = system: TK-10
[25] = system: BT-549
[26] = system: MDA-N
[27] = system: SF-268
[28] = system: SNB-19
[29] = system: ACHN
[30] = system: MCF7
[31] = system: A549
[32] = system: OVCAR-3
[33] = system: RPMI-8226
[34] = system: KM12
[35] = system: Hs-578T
[36] = system: Malme-3M
[37] = system: OVCAR-4
[38] = system: OVCAR-5
[39] = system: NCI/ADR-RES
[40] = system: COLO 205
[41] = system: MDA-MB-435
[42] = system: HL-60
[43] = system: HCT-15
[44] = system: NCI-H226
[45] = system: NCI-H460
[46] = system: SK-MEL-5
[47] = system: HT-29
[48] = system: OVCAR-8
[49] = system: SR
[50] = system: UACC-257
[51] = system: RXF 393
[52] = system: K562
[53] = system: SN12C
[54] = system: SW-620
[55] = system: 786-0
[56] = system: T47D
[57] = system: SF-539
[58] = system: MOLT-4
[59] = system: SK-OV-3

Measured: GI50

CN(C)CCN(c1ccccn1)c1ccccn1
inactive: [1] > 100 µM | [2] > 100 µM | [3] > 100 µM | [4] > 100 µM | [5] > 100 µM | [6] > 100 µM | [7] > 100 µM | [8] > 100 µM | [9] > 100 µM | [10] > 100 µM | [11] > 100 µM | [12] > 100 µM | [13] > 100 µM | [14] > 100 µM | [15] > 100 µM | [16] > 100 µM | [17] > 100 µM | [18] > 100 µM | [19] > 100 µM | [20] > 100 µM | [21] > 100 µM | [22] > 100 µM | [23] > 100 µM | [24] > 100 µM | [25] > 100 µM | [26] > 100 µM | [27] > 100 µM | [28] > 100 µM | [29] > 100 µM | [30] > 100 µM | [31] > 100 µM | [32] > 100 µM | [33] > 100 µM | [34] > 100 µM | [35] > 100 µM | [36] > 100 µM | [37] > 100 µM | [38] > 100 µM | [39] > 100 µM | [40] > 100 µM | [41] > 100 µM | [42] > 100 µM | [44] > 100 µM | [45] > 100 µM | [46] > 100 µM | [47] > 100 µM | [48] > 100 µM | [49] > 100 µM | [50] > 100 µM | [51] > 100 µM | [52] > 100 µM | [53] > 100 µM | [54] > 100 µM | [55] > 100 µM | [56] > 100 µM | [57] > 100 µM | [58] > 100 µM | [59] > 100 µM
> 100 µM: [43]

C/C(=N\Nc1nc2cc(C(F)(F)F)ccc2s1)c1ccccn1
active: [1] 0.0853 µM | [3] 0.111 µM | [6] 0.0537 µM | [7] 0.303 µM | [8] 0.448 µM | [9] 0.0555 µM | [11] 0.594 µM | [12] 0.211 µM | [13] 0.0316 µM | [14] 0.282 µM | [15] 0.408 µM | [16] 0.452 µM | [17] 0.593 µM | [18] 0.401 µM | [19] 0.0783 µM | [20] 0.287 µM | [21] 0.0431 µM | [23] 0.123 µM | [26] 1.06 µM | [27] 0.333 µM | [28] 0.968 µM | [29] 0.113 µM | [30] 0.0753 µM | [31] 0.593 µM | [32] 0.826 µM | [33] 0.402 µM | [34] 0.526 µM | [36] 0.0622 µM | [37] 0.321 µM | [39] 0.291 µM | [40] 0.0442 µM | [41] 0.469 µM | [42] 0.127 µM | [44] 0.124 µM | [45] 0.452 µM | [46] 0.338 µM | [47] 0.0422 µM | [48] 0.0621 µM | [49] 0.0624 µM | [50] 0.452 µM | [52] 0.266 µM | [53] 0.23 µM | [54] 0.102 µM | [55] 0.34 µM | [56] 0.239 µM | [58] 0.0264 µM | [59] 0.245 µM
inactive: [2] 1.67 µM | [4] 1.98 µM | [5] 1.52 µM | [10] 2.6 µM | [22] 2.41 µM | [24] 2.52 µM | [25] 3.35 µM | [35] 1.91 µM | [38] 2.47 µM | [51] 1.36 µM | [57] 1.42 µM
0.0993 µM: [43]

Cc1[nH]n(-c2ncc(C(=O)O)c(=O)[nH]2)c(=O)c1CCO
inactive: [1] > 100 µM | [2] > 100 µM | [3] > 100 µM | [4] > 88.5 µM | [5] > 100 µM | [6] > 100 µM | [7] > 100 µM | [8] > 100 µM | [9] > 100 µM | [10] > 58.9 µM | [11] > 100 µM | [12] > 100 µM | [13] > 100 µM | [14] > 100 µM | [15] > 100 µM | [16] > 100 µM | [17] > 88.1 µM | [18] > 100 µM | [19] > 100 µM | [20] > 100 µM | [21] > 100 µM | [22] > 100 µM | [23] > 100 µM | [24] > 100 µM | [25] > 100 µM | [26] > 100 µM | [27] > 100 µM | [28] > 100 µM | [29] > 100 µM | [30] > 92.7 µM | [31] > 85.3 µM | [32] > 100 µM | [33] > 100 µM | [34] > 100 µM | [35] > 100 µM | [36] > 100 µM | [37] > 100 µM | [38] > 100 µM | [39] > 100 µM | [40] > 88.9 µM | [41] > 100 µM | [42] > 100 µM | [44] > 100 µM | [45] > 75.7 µM | [46] > 100 µM | [47] > 83.8 µM | [48] > 100 µM | [49] > 37 µM | [50] > 100 µM | [51] > 100 µM | [52] > 100 µM | [53] > 100 µM | [54] > 100 µM | [55] > 100 µM | [56] > 100 µM | [57] > 84.9 µM | [58] > 100 µM | [59] > 100 µM
> 100 µM: [43]
